According to PMC7744439 (European journal of medicinal chemistry, 2020):
Where two headings read alike, the source gives them in different places.

Tests used:
[1] = system: Ac-H4 in spleen, brain and liver; conditions: 0.5 to 400 mg/kg, after 4 h treatment, dose-dependent; cited from earlier work
HDAC6 [2] = target: T1, HDAC6 (Homo sapiens, UniProt Q9UBN7); conditions: read-out: HDAC6 IC50, cited from earlier work
T1 sequence (Q9UBN7 1-1215): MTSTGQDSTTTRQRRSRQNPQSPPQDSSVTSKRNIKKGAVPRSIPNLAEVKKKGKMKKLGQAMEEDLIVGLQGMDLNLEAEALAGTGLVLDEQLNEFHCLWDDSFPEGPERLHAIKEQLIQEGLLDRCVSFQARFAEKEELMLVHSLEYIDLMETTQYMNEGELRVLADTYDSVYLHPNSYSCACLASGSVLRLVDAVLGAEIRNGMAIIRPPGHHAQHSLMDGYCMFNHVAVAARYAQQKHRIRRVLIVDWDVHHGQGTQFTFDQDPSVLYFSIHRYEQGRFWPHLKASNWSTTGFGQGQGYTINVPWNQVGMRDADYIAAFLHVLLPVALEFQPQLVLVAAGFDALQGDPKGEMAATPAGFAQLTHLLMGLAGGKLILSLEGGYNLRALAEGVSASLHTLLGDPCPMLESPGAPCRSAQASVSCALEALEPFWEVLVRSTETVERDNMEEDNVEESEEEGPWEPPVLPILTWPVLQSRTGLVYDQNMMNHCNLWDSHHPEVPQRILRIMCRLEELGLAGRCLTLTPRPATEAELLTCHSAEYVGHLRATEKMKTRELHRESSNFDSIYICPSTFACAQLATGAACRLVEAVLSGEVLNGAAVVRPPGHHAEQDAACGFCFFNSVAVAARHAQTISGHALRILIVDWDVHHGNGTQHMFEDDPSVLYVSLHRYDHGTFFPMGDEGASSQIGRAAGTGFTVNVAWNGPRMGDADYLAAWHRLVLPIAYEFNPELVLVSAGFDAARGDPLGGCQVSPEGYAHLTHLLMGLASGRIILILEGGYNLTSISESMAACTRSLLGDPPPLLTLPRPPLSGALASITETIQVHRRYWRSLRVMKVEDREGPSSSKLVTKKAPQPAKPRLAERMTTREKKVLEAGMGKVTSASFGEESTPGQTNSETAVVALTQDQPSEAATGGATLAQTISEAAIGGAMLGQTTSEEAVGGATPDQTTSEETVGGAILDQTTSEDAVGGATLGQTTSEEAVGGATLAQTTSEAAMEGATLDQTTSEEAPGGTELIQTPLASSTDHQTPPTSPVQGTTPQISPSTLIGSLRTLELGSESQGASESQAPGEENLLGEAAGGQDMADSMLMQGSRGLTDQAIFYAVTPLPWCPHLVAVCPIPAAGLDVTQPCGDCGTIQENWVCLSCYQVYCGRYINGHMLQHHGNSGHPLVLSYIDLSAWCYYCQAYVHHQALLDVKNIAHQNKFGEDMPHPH

PC-3 tumors = conditions: cited from earlier work; for tumor growth: IP, 28 days, 0.5 mg/kg; for mortality or body-weight loss: during the treatment, 0.5 mg/kg IP
[3] = IP, cited from earlier work; for behavior of the mice: 0.5 to 400 mg/kg
[4] = mice, 400 mg/kg, IP, plasma; cited from earlier work
total HDACs = conditions: read-out: Total HDAC (IC50); cited from earlier work
Caco-2 cells = conditions: cited from earlier work; for permeability classification: moderately permeable = 2 × 10^−6 cm/s < Papp(A–B) < 20 × 10^−6 cm/s
[5] = system: prostate cancer cells (PC-3 and LNCap); conditions: cited from earlier work
[6] = system: nonmalignant cells (267-B1 and RWPE-1); conditions: cited from earlier work
primary cortical neurons [7] = conditions: 5 μM, 24 h; cited from earlier work
[8] = system: monomorphic malignant human glioma cells (A172, U373MG, and T98G); conditions: cited from earlier work
hAPP 3 × Tg mice = conditions: 50 mg/kg, IP, four weeks, cited from earlier work
dendritic spine density = conditions: 50 mg/kg, IP; cited from earlier work
[9] = system: N2a cells overexpressing hAPP; conditions: 5 μM, 24 h; cited from earlier work
primary cortical neurons [10] = conditions: cited from earlier work; for neuroprotection: at 10 μM
HDAC2 = HDAC2 (Homo sapiens, UniProt Q92769); assay: HDAC2 enzymatic inhibition; format: biochemical
Chain of HDAC2 (Q92769 whole entry, species assumed): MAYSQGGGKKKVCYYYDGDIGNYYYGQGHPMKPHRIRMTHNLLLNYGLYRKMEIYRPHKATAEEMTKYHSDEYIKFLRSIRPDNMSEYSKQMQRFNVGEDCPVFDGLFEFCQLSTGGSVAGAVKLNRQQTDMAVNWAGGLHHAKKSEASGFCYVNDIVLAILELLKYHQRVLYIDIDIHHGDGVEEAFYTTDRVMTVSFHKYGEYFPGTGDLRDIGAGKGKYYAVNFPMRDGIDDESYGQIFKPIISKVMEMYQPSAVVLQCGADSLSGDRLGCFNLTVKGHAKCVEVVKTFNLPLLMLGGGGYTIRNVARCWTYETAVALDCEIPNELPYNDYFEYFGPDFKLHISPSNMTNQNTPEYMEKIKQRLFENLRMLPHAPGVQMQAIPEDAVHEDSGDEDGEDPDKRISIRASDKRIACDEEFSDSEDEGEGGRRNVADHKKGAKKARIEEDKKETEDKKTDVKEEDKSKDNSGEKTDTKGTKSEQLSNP

HDAC6 [11] = target: T1, HDAC6; assay: HDAC6 enzymatic inhibition; format: biochemical
HDAC1 = HDAC1 (Homo sapiens, UniProt Q13547); assay: HDAC1 enzymatic inhibition; format: biochemical
Chain of HDAC1 (Q13547 whole entry, species assumed): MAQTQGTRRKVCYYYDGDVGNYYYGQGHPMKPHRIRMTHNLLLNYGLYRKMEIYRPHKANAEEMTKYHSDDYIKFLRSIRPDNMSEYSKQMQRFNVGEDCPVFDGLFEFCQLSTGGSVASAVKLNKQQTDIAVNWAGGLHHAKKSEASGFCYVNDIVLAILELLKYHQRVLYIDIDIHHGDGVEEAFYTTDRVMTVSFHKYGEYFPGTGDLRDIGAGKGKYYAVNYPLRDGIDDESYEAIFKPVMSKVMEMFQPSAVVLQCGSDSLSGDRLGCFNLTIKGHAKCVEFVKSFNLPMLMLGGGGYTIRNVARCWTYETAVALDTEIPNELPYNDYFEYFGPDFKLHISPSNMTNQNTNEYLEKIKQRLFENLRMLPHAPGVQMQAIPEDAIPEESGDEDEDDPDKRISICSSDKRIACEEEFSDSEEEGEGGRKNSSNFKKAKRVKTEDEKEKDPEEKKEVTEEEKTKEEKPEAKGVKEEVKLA

HDAC8 = target: T2, HDAC8 (Homo sapiens, UniProt Q9BY41); conditions: read-out: HDAC8 IC50; cited from earlier work
T2 sequence (Q9BY41 1-377): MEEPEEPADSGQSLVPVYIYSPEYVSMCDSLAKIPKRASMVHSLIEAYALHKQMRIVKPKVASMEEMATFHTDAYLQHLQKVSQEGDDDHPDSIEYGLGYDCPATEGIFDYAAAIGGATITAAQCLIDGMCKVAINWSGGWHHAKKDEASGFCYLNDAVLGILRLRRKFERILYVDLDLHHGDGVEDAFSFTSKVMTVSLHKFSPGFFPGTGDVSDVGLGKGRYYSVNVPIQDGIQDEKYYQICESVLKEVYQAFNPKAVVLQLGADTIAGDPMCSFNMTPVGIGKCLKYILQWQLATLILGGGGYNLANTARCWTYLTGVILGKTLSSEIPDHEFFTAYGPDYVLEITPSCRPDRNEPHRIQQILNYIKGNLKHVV

CN(C)c1ccc(C(=O)NCCCCCNC(=O)CS)cc1 [Compound 20]
Ac-H4 levels in the spleen [1]: significantly increased | IC50 (HDAC6 [2]; Table 1): 110 nM | tumor growth (PC-3 tumors): significant inhibition on the tumor growth | mortality or body-weight loss (PC-3 tumors): no mortality or body-weight loss | behavior of the mice [3]: remain normal | CL [4]: 4.87 ± 0.2 L/h | IC50 (total HDACs): 200 nM | permeability classification (Caco-2 cells): moderately permeable | anti-proliferative effects [5]: low-micromolar levels of anti-proliferative effects | inhibitory effects on nonmalignant cells [6]: no apparent inhibitory effects

O=C(CS)NCCCCCC(=O)Nc1cccc2cccnc12 [Compound 63]
increase of cell surface APP (primary cortical neurons [7]): two-fold | levels of Ac-H3 ([8]; A172 and U373MG cells): without influence | levels of Ac-Tub ([8]; A172 and U373MG cells): significantly enhanced | cell migration and invasion ([8]; A172 cells): reduced cell migration and invasion | phosphorylation of FAK/STAT3 [8]: suppress the phosphorylation of FAK/STAT3 | cytotoxicity in glioma cells ([8]; concentrations up to 50 μM): did not show cytotoxicity | Aβ levels (hAPP 3 × Tg mice): decreased | phosphorylated tau (Thr181) levels (hAPP 3 × Tg mice): decreased | learning and memory deficits (hAPP 3 × Tg mice; aged mice (9-10-month-old)): alleviated the learning and memory deficits | Ac-H4 levels in the spleen [1]: significantly increased | dendritic spine density (dendritic spine density): promotes dendritic spine density | IC50 (HDAC6 [2]; Table 3): 90 nM | increase of cell surface APP [9]: two-fold | tumor growth (PC-3 tumors): significant inhibition on the tumor growth | mortality or body-weight loss (PC-3 tumors): no mortality or body-weight loss | time to full recovery ([3]; 400 mg/kg): ≤ 1 h | behavior of the mice [3]: incapacitated 15 min after treating | CL [4]: 4.05 ± 0.15 L/h | IC50 (total HDACs): 40 nM | transporters responsible for the efflux (Caco-2 cells): P-glycoprotein (P-gp) and multidrug resistance-associated protein 1 (MRP1) | permeability classification (Caco-2 cells): moderately permeable | anti-proliferative effects [5]: low-micromolar levels of anti-proliferative effects | inhibitory effects on nonmalignant cells [6]: no apparent inhibitory effects

Cc1noc(-c2cccc(F)c2)c1C#CCCCCCNC(=O)C(C)S (stereo not drawn) [Compound 50]
neuroprotection (primary cortical neurons [10]): neuroprotective effects

O=C(CS)NCCCCCC(=O)Nc1ccccc1 [Compound 11]
IC50 (HDAC2): > 30000 nM | IC50 (HDAC6 [11]): 340 nM | SI, HDAC1/6 selectivity index (HDAC6 [11]; HDAC1/HDAC6, text prints -folds): 11.1 | IC50 (HDAC1): 3760 nM

Cc1onc(-c2ccccc2)c1C(=O)NCCCCCNC(=O)CS [Compound 34]
neuroprotection (primary cortical neurons [10]): full neuroprotection

Cc1onc(-c2ccccc2)c1C(=O)NCCCCCNC(=O)[C@H](C)S [Compound 37]
prevention of glutathione depletion (primary cortical neurons [10]): ability to prevent glutathione depletion

O=C(CS)NCCCCCn1ccc2cc(Cl)c(Cl)cc21 [Compound 74]
IC50 (HDAC6 [11]): 2330 nM | SI, HDAC1/6 selectivity index (HDAC6 [11]): >12.8 | IC50 (HDAC1): > 30000 nM

Cc1onc(-c2ccccc2)c1COCCCCCNC(=O)[C@H](C)S [Compound 41]
prevention of glutathione depletion (primary cortical neurons [10]): ability to prevent glutathione depletion

O=C(NO)c1ccccc1 [phenylhydroxamate, reference compound]
IC50 (HDAC6 [2]): 115 nM | IC50 (HDAC8): 1900 nM

Cc1noc(-c2ccccc2)c1C#CCCCCCNC(=O)C(C)S (stereo not drawn) [Compound 49]
neuroprotection (primary cortical neurons [10]): neuroprotective effects

Cc1onc(-c2ccccc2)c1C=CCCCCCNC(=O)C(C)S (stereo not drawn) [Compound 45]
neuroprotection (primary cortical neurons [10]): neuroprotective effects
